Data as given in patent US20180030482A1 (Moralco B.V., priority 2014, published 2018).
Where “and” joins values, the source holds several entries; their conditions need not be identical. Identical values can stand only once.

Legend:
[1] = kH=Ca/Pg, concentration in water over partial pressure in the gas phase; cited from earlier work
[2] = tested on: S. cerevisiae CBS 8066; experiment: Anoxic chemostat fermentation under glucose limitation in absence or presence of acetaldehyde; type: cell-based, Saccharomyces cerevisiae; conditions: for Δ ethanol produced / Δ glycerol produced: relative to steady state 1 without acetaldehyde; for acetaldehyde concentration in chemostat sample / acetic acid concentration in chemostat sample / ethanol concentration in chemostat sample / glucose concentration in chemostat sample / glycerol concentration in chemostat sample / pyruvic acid concentration in chemostat sample / succinic acid concentration in chemostat sample: dilution rate 0.11 h^−1, duplicate samples A and B
Procedure: (§1) The column was eluted at 60° C. with 0.5 g/l H2S04 at a flow rate of 0.6 ml min^−1 . Detection was by means of a Waters 2410 refractive-index detector and a Waters 2487 UV detector. Initial and final glycerol concentrations were further determined using an enzymatic determination kit (Rbiopharm AG, Darmstadt, Germany).
The mineral salts medium employed was based on standard media (Bruinenberg et al. 1983. Journal of General Microbiology 129:965-971; Verduin et al 1990. Journal of General Microbiology 136:395-403). It contained the following per liter of demineralized water: (NH4)2SO4, 5 g; KH2PO4, 3 g; MgSO4.7H2O, 0.5 g; EDTA, 15 mg; ZnSO4.7H20, 4.5 mg; CoCl2 6H2O, 0.3 mg; MnCl2 4H20, 1 mg; CuSO4 5H20, 0.3 mg; CaCl2. 2H20, 4.5 mg; FeSO4 7H20, 3 mg; Na2MoO4. 2H2O, 0.4 mg; H3BO3, 1 mg; KI, 0.1 mg; and 0.025 ml silicone antifoam (BDH). After heat sterilization at 120° C. and cooling, filter sterilized vitamins were added: biotin, 0.05 mg; calcium pantothenate, 1 mg; nicotinic acid, 1 mg; inositol, 25 mg; thiamin.HCl, 1 mg; pyridoxine.HCl, 1 mg; and para-aminobenzoic acid, 0.2 mg. Ergosterol and Tween 80 were dissolved in pure ethanol and steamed at 100° C. for 10 minutes before they were added to the medium to give final concentrations of 10 and 400 mg/l, respectively, and a final concentration of 38 mM ethanol. […] The sterilized glucose solution was added to the sterile mineral salts medium to give the required final concentration.
Anoxic chemostat cultivation of the yeasts was done at 30° C. in a fermenter with a working volume of 1 liter and at a stirring speed of 600 r.p.m. The pH was automatically controlled at pH=5 by titration with 2 M KOH. The condenser at the outlet of the gas stream was connected to a cryostat and cooled at 2° C. The condensate was returned into the fermentation vessel. The tubing on the entire fermenter set-up (including medium- and waste-reservoirs) consisted of material (Norprene tubing) that is very poorly permeable for oxygen. The fermenter and the medium reservoir (with a magnetic stirrer) were sparged with certificated ultra-pure nitrogen prior to the addition of acetaldehyde to the reservoir.
Strain S. cerevisiae CBS 8066 was cultivated in chemostat culture at a dilution rate of 0.11 h^−1. The glucose concentration in the medium reservoir was […] in each run. Three separate steady states were obtained in either the absence or presence of acetaldehyde. The effect of the aldehyde on the fermentation was tested by adding the compound to the medium reservoir after a steady state situation in its absence (medium and samples “1”) had been established. […] In each of the three steady states (after 3-5 volume changes), the fermentation medium in the fermenter was analyzed for various compounds as summarized in Tables 1 and 2.

[3] = tested on: Lactococcus lactis; conditions: cited from earlier work
[4] = tested on: S. cerevisiae CBS 8066; experiment: Small-scale batch cultivation testing the effect of acetaldehyde on formation of ethanol and glycerol; type: cell-based, Saccharomyces cerevisiae; conditions: 1.76 mM acetaldehyde in, single addition at start; 280 mM glucose at start; 90 minutes of incubation
Procedure: as §1
Carbon dioxide was allowed to escape from the bottles by inserting a needle in the septum of the cap. The bottles were incubated stationary. A sample per bottle was taken at the start of the experiment and after 90 minutes of incubation.
The initial cell concentration was 0.45 g/l dry biomass. Acetaldehyde was supplied to the bottle in a single addition at the start of the incubation. In a separate control run, no acetaldehyde was supplied.

[5] = tested on: lactic acid bacteria, belonging to Lactobacillus, Pediococcus, Leuconostoc and Weissella; experiment: Semi-anoxic co-culture of yeast with lactic acid bacteria at increasing acetaldehyde concentrations; type: cell-based; conditions: increasing concentrations of acetaldehyde in subsequent batches; without acetaldehyde the bacteria remained present
Procedure: Media for plates (1.5% agar) for S. cerevisiae were the mineral salts medium supplement with 2% glucose and for lactic acid bacteria the de Man, Rogosa and Sharpe (MRS) medium. Cycloheximide (0.1 g/l) was added to the plates in case mixed cultures of yeast and lactic acid bacteria were studied.
Semi-anoxic batch cultivation of the yeasts together with lactic acid bacteria was done at 30° C. in 100-ml Erlenmeyer flasks. The flasks contained 50 ml mineral salts medium supplied with glucose (12 g/l) and they were incubated without shaking. Air could enter in the flasks via cotton plugs.
S. cerevisiae CEN.PK2-1C was subjected to evolutionary engineering analogous to the procedure described above, except that now semi-anoxic conditions were employed. Eight strains of lactic acid bacteria, belonging to Lactobacillus, Pediococcus, Leuconostoc and Weissella, were inoculated as well. The dynamics of the quantitative growth of the 9 organisms thus present as co-culture was followed during the procedure of evolutionary engineering. During each successive transfer step, the suspension after growth was plated on media that allow growth of either S. cerevisiae or of the 8 strains of lactic acid bacteria. […] Under this circumstance, the lactic acid bacteria remained present in the system.

[6] = tested on: S. cerevisiae CEN.PK2-1C; experiment: Evolutionary engineering for enhanced tolerance to acetaldehyde (oxic batch cultivation); type: cell-based, Saccharomyces cerevisiae; conditions: batch system; compared to the parent strain in the absence of acetaldehyde
Procedure: The flasks contained 20 ml mineral salts medium supplied with glucose (12 g/l) and they were incubated on a rotary shaker at 400 r.p.m. Air could enter in the flasks via cotton plugs.
The organisms were cultivated under oxic conditions in a batch-wise mode. The initial pH of the mineral salts medium was set at 6 by titrating with KOH and glucose was added at 12 g/l. […] The newly acquired strains retained their ability to withstand higher acetaldehyde levels also when cultivating them anoxically in mineral salts medium with glucose and for prolonged periods of times. This subculturing was by taking an aliquot of 0.5 ml from a culture that had consumed all glucose and by transferring this inoculum to fresh medium (50 ml).

[7] = tested on: Ethanol Red strain; experiment: Batch fermentation testing acetaldehyde additions at high ethanol concentrations; type: cell-based; conditions: acetaldehyde added once ethanol had reached 80 g/l, controlled between 0.06 and 0.1 g/l; 180 minutes without acetaldehyde
Procedure: The stirring speed was set at 300 r.p.m. and the pH of the mineral salts medium containing 280 g/l glucose was kept at 5 by adding 2 M NaOH. The condenser at the outlet of the gas stream was connected to a cryostat and cooled at 2° C. The condensate was returned into the fermentation vessel. […] Sampling was from a loop kept at 35° C. for circulating gas from the headspace. […] The solution entered in the aqueous phase via a needle at the outlet of the tubing.
The mineral salts medium was employed with the addition of yeast extract at 1 g/l. The initial cell concentration was 0.5 g/l dry biomass. Air was supplied to the headspace of the fermenter at 15 ml/min during the first 2 hours of cultivation after which conditions were kept anoxic. Glucose was added initially at 230 g/l. […] The concentration was monitored from the headspace and controlled in the fermenter liquid between 0.06 and 0.1 g/l. In a control experiment, no acetaldehyde was supplied.

[8] = Steady state 2 (6 mM acetaldehyde supplied)
[9] = Steady state 3 (15 mM acetaldehyde supplied)
[10] = steady state 2, 6 mM acetaldehyde supplied
[11] = steady state 3, 15 mM acetaldehyde supplied

O=O [oxygen]
Henry's law constant kH [1]: 1.3*10^−3 M/atm

CC=O [acetaldehyde]
acetaldehyde consumed [2, 8]: -6 mM | glucose consumed [2, 8]: 136 mM | Δ ethanol produced [2, 8]: 15 mM | Δ glycerol produced [2, 8]: -6 mM | acetaldehyde consumed [2, 9]: -16 mM | glucose consumed [2, 9]: 136 mM | Δ ethanol produced [2, 9]: 27 mM | Δ glycerol produced [2, 9]: -11 mM | acetaldehyde concentration in chemostat sample [2, 10]: 0.03 mM | acetic acid concentration in chemostat sample [2, 10]: 0.64 mM and 0.54 mM | ethanol concentration in chemostat sample [2, 10]: 243.13 mM and 244.74 mM | glucose concentration in chemostat sample [2, 10]: 0.48 mM and 0.46 mM | glycerol concentration in chemostat sample [2, 10]: 9.47 mM and 9.60 mM | pyruvic acid concentration in chemostat sample [2, 10]: 0.56 mM and 0.51 mM | succinic acid concentration in chemostat sample [2, 10]: 0.43 mM and 0.45 mM | acetaldehyde concentration in chemostat sample [2, 11]: 0.04 mM | acetic acid concentration in chemostat sample [2, 11]: 0.78 mM and 0.69 mM | ethanol concentration in chemostat sample [2, 11]: 255.35 mM and 255.25 mM | glucose concentration in chemostat sample [2, 11]: 0.44 mM and 0.48 mM | glycerol concentration in chemostat sample [2, 11]: 4.04 mM and 4.02 mM | pyruvic acid concentration in chemostat sample [2, 11]: 0.48 mM | succinic acid concentration in chemostat sample [2, 11]: 0.45 mM and 0.50 mM | concentration resulting in a reduction of the growth rate by 50% [3]: 0.4 kg/m^3 | minimum inhibitory concentration (MIC) [3]: 35 mM and 1.5 kg/m^3 | IC50 ([3]; read-out: concentration resulting in a reduction of the growth rate by 50%): 9 mM | Acetaldehyde at end [4]: 1.01 mM | Ethanol at end [4]: 6.67 mM | Glycerol at end [4]: 0.58 mM | Henry's law constant kH [1]: 15 M/atm | fate of the lactic acid bacteria in the co-culture [5]: disappeared | acetaldehyde concentration in whose presence the evolved strain grew without a noticeable change in growth rate [6]: 0.5 g/L | time required to reach 98 g/l of ethanol in the liquid [7]: 158 min

CCO [ethanol]
Henry's law constant kH [1]: approximately 200 M/atm
